Measurements from patent US4248863A, “Antibiotics saframycins A, B, C, D and E and process for producing the same” (priority 1977, dated 1981).
In brackets after ≈: the same amount, converted by molar mass.

How the values were obtained:
Escherichia coli = assay: Antimicrobial spectrum, MIC (Table 4); assay type: cell-based; settings: 1% glucose nutrient agar, 37° C., 24 or 48 hours
Serratia marcescens = assay: Antimicrobial spectrum, MIC (Table 4); assay type: cell-based; settings: 1% glucose nutrient agar, 37° C., 24 or 48 hours
Staphylococcus citreus = assay: Antimicrobial spectrum, MIC (Table 4); assay type: cell-based; settings: 1% glucose nutrient agar, 37° C., 24 or 48 hours
Aspergillus niger = assay: Antimicrobial spectrum, MIC (Table 4); settings: Sabouraud.dextrose.agar, 27° C., 48 hours
Staphylococcus albus = assay: Antimicrobial spectrum, MIC (Table 4); assay type: cell-based; settings: 1% glucose nutrient agar, 37° C., 24 or 48 hours
Mycobacterium phlei = assay: Antimicrobial spectrum, MIC (Table 4); assay type: cell-based; settings: 3% glycerol nutrient agar for acid-fast bacteria, 37° C., 24 or 48 hours
[1] = tested on: Shigella dysenteriae Shiga; assay: microbe, parasite or virus in culture; assay type: cell-based; settings: 1% glucose nutrient agar, 37° C., 24 or 48 hours
[2] = tested on: Corynebacterium dephtheriae; assay: Antimicrobial spectrum, MIC (Table 4); assay type: cell-based; settings: 1% glucose nutrient agar, 37° C., 24 or 48 hours
Nocardia asteroides = assay: Antimicrobial spectrum, MIC (Table 4); assay type: cell-based; settings: 37° C., 24 or 48 hours
Corynebacterium xerosis = assay: Antimicrobial spectrum, MIC (Table 4); assay type: cell-based; settings: 1% glucose nutrient agar, 37° C., 24 or 48 hours
Mycobacterium sp. 607 = assay: Antimicrobial spectrum, MIC (Table 4); assay type: cell-based; settings: 3% glycerol nutrient agar for acid-fast bacteria, 37° C., 24 or 48 hours
Mucor mucedo = assay: Antimicrobial spectrum, MIC (Table 4); settings: Sabouraud.dextrose.agar, 27° C., 48 hours
Micrococcus luteus = assay: Antimicrobial spectrum, MIC (Table 4); assay type: cell-based; settings: 1% glucose nutrient agar, 37° C., 24 or 48 hours
[3] = tested on: Staphylococcus aureus Smith; assay: Antimicrobial spectrum, MIC (Table 4); assay type: cell-based; settings: 1% glucose nutrient agar, 37° C., 24 or 48 hours
Klebsiella pneumoniae = assay: Antimicrobial spectrum, MIC (Table 4); assay type: cell-based; settings: 1% glucose nutrient agar, 37° C., 24 or 48 hours
Penicillium glaucum = assay: Antimicrobial spectrum, MIC (Table 4); settings: Sabouraud.dextrose.agar, 27° C., 48 hours
Rhodotorula glutinis = assay: Antimicrobial spectrum, MIC (Table 4); settings: Sabouraud.dextrose.agar, 27° C., 48 hours
Saccharomyces cerevisiae = assay: Antimicrobial spectrum, MIC (Table 4); settings: Sabouraud.dextrose.agar, 27° C., 48 hours
[4] = tested on: Staphylococcus aureus 209P; assay: Antimicrobial spectrum, MIC (Table 4); assay type: cell-based; settings: 1% glucose nutrient agar, 37° C., 24 or 48 hours
Pseudomonas aeruginosa = assay: Antimicrobial spectrum, MIC (Table 4); assay type: cell-based; settings: 1% glucose nutrient agar, 37° C., 24 or 48 hours
Mycobacterium avium = assay: Antimicrobial spectrum, MIC (Table 4); assay type: cell-based; settings: 3% glycerol nutrient agar for acid-fast bacteria, 37° C., 24 or 48 hours
Bacillus cereus = assay: Antimicrobial spectrum, MIC (Table 4); assay type: cell-based; settings: 1% glucose nutrient agar, 37° C., 24 or 48 hours
Candida albicans = assay: Antimicrobial spectrum, MIC (Table 4); settings: Sabouraud.dextrose.agar, 27° C., 48 hours
[5] = tested on: Trichophyton mentagrophytes; assay: Antimicrobial spectrum, MIC (Table 4); settings: Sabouraud.dextrose.agar, 27° C., 72 hours
Bacillus subtilis = assay: Antimicrobial spectrum, MIC (Table 4); assay type: cell-based; settings: 1% glucose nutrient agar, 37° C., 24 or 48 hours
Brucella abortus = assay: microbe, parasite or virus in culture; assay type: cell-based; settings: blood agar, 37° C., 24 or 48 hours
Salmonella typhimurium = assay: Antimicrobial spectrum, MIC (Table 4); assay type: cell-based; settings: 1% glucose nutrient agar, 37° C., 24 or 48 hours
Aspergillus oryzae = assay: Antimicrobial spectrum, MIC (Table 4); settings: Sabouraud.dextrose.agar, 27° C., 48 hours
Streptococcus faecalis = assay: Antimicrobial spectrum, MIC (Table 4); assay type: cell-based; settings: 1% glucose nutrient agar, 37° C., 24 or 48 hours
Streptococcus pyogenes = assay: Antimicrobial spectrum, MIC (Table 4); assay type: cell-based; settings: blood agar, 37° C., 24 or 48 hours
[6] = tested on: Staphylococcus salivarius; assay: Antimicrobial spectrum, MIC (Table 4); assay type: cell-based; settings: 1% glucose nutrient agar, 37° C., 24 or 48 hours
[7] = tested on: Streptococcus pyogenes 090R; assay: Antimicrobial spectrum, MIC (Table 4); assay type: cell-based; settings: blood agar, 37° C., 24 or 48 hours

SMILES | MIC (Escherichia coli) | MIC (Serratia marcescens) | MIC (Staphylococcus citreus) | MIC (Aspergillus niger) | MIC (Staphylococcus albus) | MIC (Mycobacterium phlei) | MIC [1] | MIC [2] | MIC (Nocardia asteroides) | MIC (Corynebacterium xerosis) | MIC (Mycobacterium sp. 607) | MIC (Mucor mucedo) | MIC (Micrococcus luteus) | MIC [3] | MIC (Klebsiella pneumoniae) | MIC (Penicillium glaucum) | MIC (Rhodotorula glutinis) | MIC (Saccharomyces cerevisiae) | MIC [4] | MIC (Pseudomonas aeruginosa) | other results
COC1=C(C)C(=O)C2=C(C1=O)[C@H](CNC(=O)C(C)=O)N1C[C@H]3C(=O)c4c(O)c(C)c(OC)c(O)c4[C@@H]([C@@H]1C2)N3C [saframycin D] | > 100.0 µg/mL | > 100.0 µg/mL | 50.0 µg/mL (≈ 90.3 µM) | > 100.0 µg/mL | 50.0 µg/mL (≈ 90.3 µM) | 50.0 µg/mL (≈ 90.3 µM) | > 100.0 µg/mL | 0.195 µg/mL (≈ 0.352 µM) | 50.0 µg/mL (≈ 90.3 µM) | 6.25 µg/mL (≈ 11.3 µM) | 50.0 µg/mL (≈ 90.3 µM) | > 100.0 µg/mL | 50.0 µg/mL (≈ 90.3 µM) | 50.0 µg/mL (≈ 90.3 µM) | 100.0 µg/mL (≈ 181 µM) | > 100.0 µg/mL | > 100.0 µg/mL | > 100.0 µg/mL | 25.0 µg/mL (≈ 45.2 µM) | > 100.0 µg/mL | MIC (Mycobacterium avium): 50.0 µg/mL (≈ 90.3 µM); MIC (Bacillus cereus): 100.0 µg/mL (≈ 181 µM); Solubility (Solubility; acetone): Sparingly soluble; Solubility (Solubility; chloroform): Easily soluble; Solubility (Solubility; esters): Sparingly soluble; Solubility (Solubility; ethyl ether): Sparingly soluble; Solubility (Solubility; lower alcohols): Easily soluble; Solubility (Solubility; n-hexane): Insoluble; Solubility (Solubility; pyridine): Easily soluble; Solubility (Solubility; water): Insoluble; MIC (Candida albicans): > 100.0 µg/mL; MIC [5]: > 100.0 µg/mL; MIC (Bacillus subtilis): 50.0 µg/mL (≈ 90.3 µM); MIC (Brucella abortus): 25.0 µg/mL (≈ 45.2 µM); MIC (Salmonella typhimurium): > 100.0 µg/mL; MIC (Aspergillus oryzae): > 100.0 µg/mL
COC1=C(C)C(=O)C2=C(C1=O)[C@H](CNC(=O)C(C)=O)N1C[C@@H]3[C@@H](O)c4c(O)c(C)c(OC)c(O)c4[C@H]([C@@H]1C2)N3C [saframycin E] | > 100.0 µg/mL | > 100.0 µg/mL | 100.0 µg/mL (≈ 180 µM) | > 100.0 µg/mL | 100.0 µg/mL (≈ 180 µM) | 25.0 µg/mL (≈ 45 µM) | > 100.0 µg/mL | 100.0 µg/mL (≈ 180 µM) | 25.0 µg/mL (≈ 45 µM) | 25.0 µg/mL (≈ 45 µM) | 100.0 µg/mL (≈ 180 µM) | > 100.0 µg/mL | 12.5 µg/mL (≈ 22.5 µM) | 50.0 µg/mL (≈ 90 µM) | 50.0 µg/mL (≈ 90 µM) | > 100.0 µg/mL | > 100.0 µg/mL | > 100.0 µg/mL | 100.0 µg/mL (≈ 180 µM) | > 100.0 µg/mL | MIC (Streptococcus faecalis): > 100.0 µg/mL; MIC (Streptococcus pyogenes): > 100.0 µg/mL; MIC [6]: 100.0 µg/mL (≈ 180 µM); MIC (Mycobacterium avium): 100.0 µg/mL (≈ 180 µM); MIC (Bacillus cereus): 25.0 µg/mL (≈ 45 µM); Solubility (Solubility; acetone): Sparingly soluble; Solubility (Solubility; chloroform): Sparingly soluble; Solubility (Solubility; esters): Sparingly soluble; Solubility (Solubility; lower alcohols): Easily soluble; Solubility (Solubility; n-hexane): Insoluble; Solubility (Solubility; pyridine): Easily soluble; Solubility (Solubility; water): Insoluble; MIC (Candida albicans): > 100.0 µg/mL; MIC [5]: > 100.0 µg/mL; MIC (Bacillus subtilis): 100.0 µg/mL (≈ 180 µM); MIC (Brucella abortus): 25.0 µg/mL (≈ 45 µM); MIC (Salmonella typhimurium): > 100.0 µg/mL; MIC (Aspergillus oryzae): > 100.0 µg/mL; MIC [7]: 25.0 µg/mL (≈ 45 µM)
